Laboratory results from ChEMBL document CHEMBL1145147, “Cytotoxic neolignans: an SAR study” (Bioorg Med Chem Lett, 2005).

tested on: HepG2; assay: Cytotoxicity of compound against human liver tumor cell line (Hep-G2) was determined; format: functional, cell-based

| Structure (SMILES) | IC50 [µM] |
| --- | --- |
| C/C=C/c1ccc(O)c(-c2cc(/C=C/C)ccc2O)c1 | 38 |
| C=CCc1cc(O)c(O)c(-c2cc(CC=C)cc(O)c2O)c1 | 104 |
| C=CCc1cccc(-c2cccc(CC=C)c2O)c1O | 42.1 |
| C=CCc1cc(OC)c(O)c(-c2cc(CC=C)cc(OC)c2O)c1 | 117 |
| C=CCc1ccc(OC)c(-c2cc(CC=C)ccc2OC)c1 | > 200 |
| Oc1ccccc1-c1ccccc1O | > 200 |
| CCCc1ccc(O)c(-c2cc(CCC)ccc2O)c1 | 23.4 |
| CCCc1ccc(O)c(-c2ccc(O)c(CCC)c2)c1 | 13.1 |
| C=CCc1ccc(O)cc1 [CHAVICOL] | > 200 |
| C=CCc1ccc(O)c(-c2ccc(O)c(CC=C)c2)c1 [HONOKIOL] | 16.5 |
| C=CCc1ccc(Oc2cc(CC=C)ccc2O)cc1 [ISOMAGNOLOL] | 51.8 |
| C=CCc1ccc(O)c(-c2cc(CC=C)ccc2O)c1 [MAGNOLOL] | 32 |
